Laboratory results: US20090023696A1, “USE OF C3-C10 17ALFA-ESTERS OF 9,11-DEHYDROCORTEXOLONE AS ANTI-GONADOTROPHIC AGENTS” (COSMO BIO-TECHNOLOGIES SRL, priority 2005, published 2009)
Values joined by “and” are separate entries in the source; they are usually repeats but may differ in a detail not shown here. Identical values can stand only once. “Also recorded” adds a separate entry of the source. Marks after values point to notes of the source that are not given here.

Tested on: hypersecretion of gonadotrophin in the parabiotic rat
Experiment: Hypersecretion of gonadotrophin induced by castration in parabiotic rats (ovarian weight)
Type: in vivo, Wistar rats
Details: for Inhibition of ovarian weight (%): subcutaneously into castrated males; for anti-gonadotrophic effect (inhibitory effect on gonadotrophin secretion), in words: overall conclusion from Table 1
Experimental: The anti-gonadotrophic action was evaluated in an animal model by evaluation of the hypersecretion of the gonads induced by castration in parabiotic rats (Shipley E. G., in: Methods in Hormone Research, R. L Dorfman (ed.), vol. 2, pp 179-274. Academic Press, New York and London, 1962). The results of the inhibitory action of […] 17α-butyrate on the gonads are shown below in Table 1. Wistar rats of both sexes with body weights of 50-60 g were used. The males were castrated and, on the next day, were surgically united along the lateral body wall with intact females (parabiosis). In this experimental procedure, the castration of the males induces in them an immediate hypersecretion of gonadotrophin, which, on reaching the female via the parabiotic union, stimulates ovarian growth. […] Progesterone was used as a positive control and was administered by the same procedure, in doses of 0.5 and 2 mg. Additional groups of pairs including intact males/intact females and castrated males/intact females were treated with the vehicle only and used as a control. At the end of the treatment period, the pairs were killed and autopsies performed. The ovaries and uteruses of each female rate were isolated and weighed. The inhibitory action causing hypersecretion of gonadotrophin due to castration was evaluated via the capacity of the tested compound to oppose the increase of weight of the ovaries.

| SMILES | Inhibition of ovarian weight (%) (daily dose 1 mg) | Inhibition of ovarian weight (%) (daily dose 5 mg) | anti-gonadotrophic effect (inhibitory effect on gonadotrophin secretion), in words | Inhibition of ovarian weight (%) (daily dose 0.5 mg) | Inhibition of ovarian weight (%) (daily dose 2 mg) |
| --- | --- | --- | --- | --- | --- |
| CCC(=O)O[C@]1(C(=O)CO)CC[C@H]2[C@@H]3CCC4=CC(=O)CC[C@]4(C)[C@H]3CC[C@@]21C [cortexolone 17α-propionate, reference compound] | 5% | 5% | no anti-gonadotrophic action at all |  |  |
| CCCC(=O)O[C@]1(C(=O)CO)CCC2C3CCC4=CC(=O)CCC4(C)C3=CCC21C (stereo partly drawn) [9,11-dehydrocortexolone 17α-butyrate] | 59% and 59^a % | 96% and 96^a % | strong and significant dose-correlated inhibitory effect on gonadotrophin secretion; also recorded: comparable to that shown by comparable doses of progesterone |  |  |
| CC(=O)[C@H]1CC[C@H]2[C@@H]3CCC4=CC(=O)CC[C@]4(C)[C@H]3CC[C@]12C [progesterone, reference compound] |  |  |  | 38^b % | 66^a % |
